According to patent publication US20120214862A1, “MODULATION OF FACTOR 7 EXPRESSION” (ISIS Pharmaceuticals, Inc., priority 2009, published 2012):
In the oligonucleotide strings, read from the 5' end, every base follows the letter of its sugar. An asterisk marks phosphorothioate; unmarked linkages are phosphodiester. Other units and linkages are bracketed, terminal groups are in braces. A string of capitals states the bases alone. e = 2'-O-(2-methoxyethyl) (MOE); [5mC] = 5-methylcytosine; d = 2'-deoxy (DNA)

Tested on: human Factor 7 mRNA
Assay: Antisense inhibition of human Factor 7 mRNA in HepB3 cells, lipofectin, 50 nM, real-time RT-PCR
Format: cell-based
Conditions: for % Inhibition (human Factor 7 mRNA): 50 nM, ~24 h
How it was run: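 After transfection of wells containing 4,000 cells, treatment ran for approximately 24 h. RIBOGREEN®-measured total RNA served for normalisation, and inhibition was calculated as a percentage of untreated control.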

[1] = HepB3 cells, lipofectin, 50 nM antisense oligonucleotide, approximately 24 hours, primer probe set RTS 2927, relative to untreated control
[2] = HepB3 cells, gapmers (5-10-5, 3-14-3, 2-13-5 MOE) targeted to nucleobases 4868 to 4899 of SEQ ID NO: 1
[3] = Example 4, HepB3 cells, lipofectin, relative to untreated control
[4] = HepB3 cells, gapmers targeted to nucleobases 11830 to 11869 of SEQ ID NO: 1 (Table 9)
[5] = Example 1, HepB3 cells, lipofectin, relative to untreated control cells
[6] = Example 6 microwalk, nucleobases 15098 to 15122 of SEQ ID NO: 1, HepB3, lipofectin
[7] = HepB3 cells, gapmers targeted to nucleobases 13760 to 13789 of SEQ ID NO: 1 (Table 10)

“416493 (antisense eT*e[5mC]*eT*eT*eG*dG*dG*dT*dG*dT*dG*dG*dA*dT*dG*eT*eA*eA*eA*eT) [compound 416493]” was tested, and the “% Inhibition of human Factor 7 mRNA levels” value [1] was 0%.

For “422224 (antisense eG*eG*eA*dG*d[5mC]*d[5mC]*d[5mC]*dG*dA*dG*dT*dT*d[5mC]*dT*dG*d[5mC]*dA*eG*eG*eA) [compound 422224]”, the “% Inhibition of human Factor 7 mRNA levels” value [2] was 62%.

“416440 (antisense eG*eG*eA*e[5mC]*eT*dG*dG*dA*dG*d[5mC]*dT*dG*dG*dT*d[5mC]*e[5mC]*eT*eT*eG*e[5mC]) [compound 416440]” was tested, and the “% Inhibition of human Factor 7 mRNA levels” value [1] was 44%.

“422280 (antisense e[5mC]*eA*dG*d[5mC]*d[5mC]*dT*dG*dA*dG*dG*d[5mC]*d[5mC]*dA*dG*d[5mC]*eA*eG*eA*eT*e[5mC]) [compound 422280]” was tested, and the “% Inhibition of human Factor 7 mRNA levels” value (HepB3 cells, gapmers targeted to nucleobases 14707 to 14732 of SEQ ID NO: 1 (Table 11)) was 52%.

In the case of “422276 (antisense eG*eG*dT*dT*dA*d[5mC]*dT*dG*dA*dG*d[5mC]*dG*d[5mC]*dG*dG*eA*eA*eG*eA*eA) [compound 422276]”, the “% Inhibition (human Factor 7 mRNA)” value [3] is reported as 66%.

“422166 (antisense eA*eG*eG*dA*dG*dA*d[5mC]*dA*dA*dT*dG*dG*dT*d[5mC]*dA*dG*dG*eG*e[5mC]*eT) [compound 422166]” was tested, and the “% Inhibition of human Factor 7 mRNA levels” value [4] was 63%.

For “407658 (antisense eG*e[5mC]*eT*eT*eG*d[5mC]*d[5mC]*dG*dG*dA*dG*dT*d[5mC]*dT*dG*eA*eG*eT*eG*eG) [compound 407658]”, the “% Inhibition (human Factor 7 mRNA)” value [5] was 16%.

In the case of “422298 (antisense eG*e[5mC]*d[5mC]*d[5mC]*dG*dA*dG*dT*dT*d[5mC]*dT*dG*d[5mC]*dA*dG*eG*eA*eG*e[5mC]*eG) [compound 422298]”, the “% Inhibition of human Factor 7 mRNA levels” value [2] is reported as 62%.

In the case of “422196 (antisense eT*eA*e[5mC]*dT*dG*dA*dG*d[5mC]*dG*d[5mC]*dG*dG*dA*dA*dG*dA*dA*eG*eG*eG) [compound 422196]”, the “% Inhibition (human Factor 7 mRNA)” value [3] is reported as 2%.

“422288 (antisense eA*e[5mC]*dA*dG*d[5mC]*dA*d[5mC]*dA*d[5mC]*dA*dT*dG*dG*dA*dG*eT*e[5mC]*eA*eG*e[5mC]) [compound 422288]” was tested, and the “% Inhibition (human Factor 7 mRNA)” value [6] was 44%.

With “422116 (antisense eT*eG*e[5mC]*eG*e[5mC]*d[5mC]*dA*d[5mC]*d[5mC]*d[5mC]*dG*d[5mC]*d[5mC]*dG*dG*e[5mC]*eT*e[5mC]*eT*eG) [compound 422116]” the “% Inhibition of human Factor 7 mRNA levels” value [7] was 52%.

In the case of “422159 (antisense eA*eA*eT*dG*dG*dT*d[5mC]*dA*dG*dG*dG*d[5mC]*dT*dG*dG*dT*dT*eT*eT*eG) [compound 422159]”, the “% Inhibition of human Factor 7 mRNA levels” value [4] is reported as 45%.

In the case of “422149 (antisense e[5mC]*eA*eT*dG*dG*dT*dG*dA*dT*dG*d[5mC]*dT*dT*d[5mC]*dT*dG*dA*eA*eT*eT) [compound 422149]”, the “% Inhibition of human Factor 7 mRNA levels” value (HepB3 cells, gapmers targeted to nucleobases 15188 to 15211 of SEQ ID NO: 1 (Table 13)) is reported as 61%.

In the case of “416509 (antisense eA*eG*eG*eA*eG*d[5mC]*d[5mC]*d[5mC]*dG*dA*dG*dT*dT*d[5mC]*dT*eG*e[5mC]*eA*eG*eG) [compound 416509]”, the “% Inhibition of human Factor 7 mRNA levels” value [1] is reported as 56% and the “% Inhibition of human Factor 7 mRNA levels” value [2] is reported as 60%.

With “422176 (antisense e[5mC]*e[5mC]*eG*d[5mC]*d[5mC]*dG*dG*d[5mC]*dT*d[5mC]*dT*dG*d[5mC]*dT*d[5mC]*dA*dT*e[5mC]*e[5mC]*e[5mC]) [compound 422176]” the “% Inhibition of human Factor 7 mRNA levels” value [7] was 52%.

With “416474 (antisense eT*eG*eT*e[5mC]*eT*dG*d[5mC]*d[5mC]*dT*d[5mC]*d[5mC]*dA*dG*dG*dA*e[5mC]*eA*eA*e[5mC]*e[5mC]) [compound 416474]” the “% Inhibition of human Factor 7 mRNA levels” value [1] was 40%.

“422101 (antisense eT*eG*eA*eG*eG*dA*dG*dA*d[5mC]*dA*dA*dT*dG*dG*dT*e[5mC]*eA*eG*eG*eG) [compound 422101]” was tested, and the “% Inhibition of human Factor 7 mRNA levels” value [4] was 42%.

“422261 (antisense eT*eG*d[5mC]*dG*d[5mC]*d[5mC]*dA*d[5mC]*d[5mC]*d[5mC]*dG*d[5mC]*d[5mC]*dG*dG*e[5mC]*eT*e[5mC]*eT*eG) [compound 422261]” was tested, and the “% Inhibition of human Factor 7 mRNA levels” value [7] was 47%.

For “422187 (antisense e[5mC]*eG*eG*dA*dA*dG*dA*dA*dG*dG*dG*dA*d[5mC]*dG*dG*dA*dA*eG*eG*eT) [compound 422187]”, the “% Inhibition (human Factor 7 mRNA)” value [3] was 28%.

With “407600 (antisense eT*eG*eA*eA*eG*d[5mC]*d[5mC]*d[5mC]*dA*dA*dG*d[5mC]*dA*dG*dA*eA*eG*eG*e[5mC]*eA) [compound 407600]” the “% Inhibition (human Factor 7 mRNA)” value [5] was 61%.

“422089 (antisense eG*eT*e[5mC]*eA*eG*dG*dG*d[5mC]*dT*dG*dG*dT*dT*dT*dT*eG*eG*eA*eG*eG) [compound 422089]” was tested, and the “% Inhibition of human Factor 7 mRNA levels” value [4] was 22%.

With “416439 (antisense eG*eT*e[5mC]*e[5mC]*eT*dT*dG*d[5mC]*dA*dG*dG*dA*dG*d[5mC]*d[5mC]*e[5mC]*e[5mC]*e[5mC]*eA*eT) [compound 416439]” the “% Inhibition of human Factor 7 mRNA levels” value [1] was 56%.

For “422267 (antisense eG*e[5mC]*dG*d[5mC]*dG*dG*dA*dA*dG*dA*dA*dG*dG*dG*dA*e[5mC]*eG*eG*eA*eA) [compound 422267]”, the “% Inhibition (human Factor 7 mRNA)” value [3] was 38%.

For “416504 (antisense eT*e[5mC]*eA*eG*eA*dA*dA*dA*dG*d[5mC]*dT*d[5mC]*dT*d[5mC]*dA*eA*eG*eA*eA*e[5mC]) [compound 416504]”, the “% Inhibition of human Factor 7 mRNA levels” value [1] was 0%.

In the case of “422173 (antisense e[5mC]*eT*eG*dG*d[5mC]*dT*dG*dA*dG*dG*dA*dG*dA*d[5mC]*dA*dA*dT*eG*eG*eT) [compound 422173]”, the “% Inhibition of human Factor 7 mRNA levels” value [4] is reported as 51%.

For “422289 (antisense eG*eA*d[5mC]*dA*dG*d[5mC]*dA*d[5mC]*dA*d[5mC]*dA*dT*dG*dG*dA*eG*eT*e[5mC]*eA*eG) [compound 422289]”, the “% Inhibition (human Factor 7 mRNA)” value [6] was 34%.

For “422190 (antisense eG*e[5mC]*eG*d[5mC]*dG*dG*dA*dA*dG*dA*dA*dG*dG*dG*dA*d[5mC]*dG*eG*eA*eA) [compound 422190]”, the “% Inhibition (human Factor 7 mRNA)” value [3] was 12%.

With “416450 (antisense eG*eG*eT*eT*eT*dG*d[5mC]*dT*dG*dG*d[5mC]*dA*dT*dT*dT*e[5mC]*eT*eT*eT*eT) [compound 416450]” the “% Inhibition of human Factor 7 mRNA levels” value [1] was 49%.

For “422213 (antisense eT*e[5mC]*eT*dG*d[5mC]*dA*dG*dG*dA*dG*d[5mC]*dG*dG*d[5mC]*d[5mC]*dT*dA*eA*eA*eT) [compound 422213]”, the “% Inhibition of human Factor 7 mRNA levels” value [2] was 67%.

“407952 (antisense eG*eG*eA*eT*e[5mC]*d[5mC]*dT*dG*dG*dG*dA*dG*d[5mC]*dT*dA*e[5mC]*eA*eG*e[5mC]*e[5mC]) [compound 407952]” was tested, and the “% Inhibition (human Factor 7 mRNA)” value [5] was 41%.

For “416566 (antisense eG*eT*eT*eT*eG*dT*dA*dT*dG*dG*dA*dG*dA*dG*dA*e[5mC]*e[5mC]*eA*eA*eT) [compound 416566]”, the “% Inhibition of human Factor 7 mRNA levels” value [1] was 0%.

“407918 (antisense e[5mC]*e[5mC]*eT*eG*eG*dT*dG*dT*dA*d[5mC]*dA*d[5mC]*d[5mC]*d[5mC]*d[5mC]*eA*eA*eA*eG*eT) [compound 407918]” was tested, and the “% Inhibition (human Factor 7 mRNA)” value [5] was 72%.

In the case of “422265 (antisense eG*e[5mC]*dG*dG*dA*dA*dG*dA*dA*dG*dG*dG*dA*d[5mC]*dG*eG*eA*eA*eG*eG) [compound 422265]”, the “% Inhibition (human Factor 7 mRNA)” value [3] is reported as 34%.

With “422290 (antisense eT*e[5mC]*dT*dG*d[5mC]*dA*dG*dG*dA*dG*d[5mC]*dG*dG*d[5mC]*d[5mC]*eT*eA*eA*eA*eT) [compound 422290]” the “% Inhibition of human Factor 7 mRNA levels” value [2] was 50%.

In the case of “422164 (antisense eG*eA*eG*dA*d[5mC]*dA*dA*dT*dG*dG*dT*d[5mC]*dA*dG*dG*dG*d[5mC]*eT*eG*eG) [compound 422164]”, the “% Inhibition of human Factor 7 mRNA levels” value [4] is reported as 64%.

With “407937 (antisense eG*eA*eA*eG*eG*dG*dA*dG*dA*dA*dA*dT*dA*d[5mC]*dA*eT*eT*eT*eG*eG) [compound 407937]” the “% Inhibition (human Factor 7 mRNA)” value [5] was 59%.

For “422178 (antisense eA*e[5mC]*e[5mC]*d[5mC]*dG*d[5mC]*d[5mC]*dG*dG*d[5mC]*dT*d[5mC]*dT*dG*d[5mC]*dT*d[5mC]*eA*eT*e[5mC]) [compound 422178]”, the “% Inhibition of human Factor 7 mRNA levels” value [7] was 37%.

With “422119 (antisense eG*e[5mC]*eG*eG*eA*dA*dG*dA*dA*dG*dG*dG*dA*d[5mC]*dG*eG*eA*eA*eG*eG) [compound 422119]” the “% Inhibition (human Factor 7 mRNA)” value [3] was 39%.

For “422284 (antisense e[5mC]*eA*d[5mC]*dA*d[5mC]*dA*dT*dG*dG*dA*dG*dT*d[5mC]*dA*dG*e[5mC]*eA*eT*e[5mC]*eG) [compound 422284]”, the “% Inhibition (human Factor 7 mRNA)” value [6] was 43%.

“407963 (antisense eA*eG*eA*eG*e[5mC]*dA*dG*dG*dG*dT*dG*d[5mC]*d[5mC]*dT*dT*eG*eG*eA*eA*eG) [compound 407963]” was tested, and the “% Inhibition (human Factor 7 mRNA)” value [5] was 33%.

In the case of “407644 (antisense eG*eA*eG*eG*eA*d[5mC]*dA*dG*d[5mC]*dA*d[5mC]*dA*d[5mC]*dA*dT*eG*eG*eA*eG*eT) [compound 407644]”, the “% Inhibition (human Factor 7 mRNA)” value [5] is reported as 66%.

For “407660 (antisense eG*e[5mC]*eT*e[5mC]*eT*dG*dA*dA*dG*dT*dA*dG*dA*dT*dG*eA*eT*eG*e[5mC]*e[5mC]) [compound 407660]”, the “% Inhibition (human Factor 7 mRNA)” value [5] was 16%.

With “407898 (antisense e[5mC]*e[5mC]*eA*eG*e[5mC]*dA*dG*dA*dG*dA*dG*dT*dA*d[5mC]*d[5mC]*e[5mC]*e[5mC]*eT*e[5mC]*eG) [compound 407898]” the “% Inhibition (human Factor 7 mRNA)” value [5] was 49%.
